A word on the IC50: it is the concentration at which inhibition is half-maximal.

Among the data in patent US12421253B2 (Mirati Therapeutics, Inc., priority 2020, dated 2025) are IC50 values, retold here.

Experiment [1] has as its target KRas^G12C (Homo sapiens, UniProt P01116, G12C). The experiment can be described thus: biochemical.
Protocol: (§1) The ability of a compound to bind to KRas was measured using a TR-FRET displacement assay. […] After a 60-minute incubation at room temperature, the reaction was measured using a BMG LABTECH CLARIO star Plus via TR-FRET. […] The POC values were fit to a 4-parameter IC50 equation and the IC50 value reported.
The target of experiment [2] is T1, KRas^WT (Homo sapiens, UniProt P01116).
T1 construct: […]; biotin (biotinylated); purchased Accelegan Inc
The experiment can be described thus: KRas binding assay (TR-FRET displacement of Cy5 labelled tracer). (In TR-FRET formats the signal depends on donor and acceptor labels being close together.)
Protocol: as §1

The target of experiment [3] is T2, KRas^G12R (Homo sapiens, UniProt P01116, G12R).
T2 construct: […]; biotin (biotinylated); purchased Accelegan Inc
The experiment is described as above.
Protocol: as §1

Experiment [4] has as its target KRas^Q61H (Homo sapiens, UniProt P01116, Q61H). The experiment in a line: biochemical.
Protocol: as §1
For experiment [5], the target named is T3, KRas^G12D (Homo sapiens, UniProt P01116, G12D).
T3 construct: […]; biotin (biotinylated); purchased Accelegan Inc
The experiment can be described thus: KRas binding assay (TR-FRET displacement of Cy5 labelled tracer).
Protocol: as §1

The target of experiment [6] is T4, KRas^G12S (Homo sapiens, UniProt P01116, G12S).
T4 construct: […]; biotin (biotinylated); purchased Accelegan Inc
The description is as above.
Protocol: as §1

The target in experiment [7] is T5, KRas^G12V (Homo sapiens, UniProt P01116, G12V).
T5 construct: […]; biotin (biotinylated); purchased Accelegan Inc
Described as above.
Protocol: as §1

For experiment [8], the target named is KRas^G13D (Homo sapiens, UniProt P01116, G13D). The experiment can be described thus: biochemical.
Protocol: as §1
Experiment [9] addresses T6, KRas^G12A (Homo sapiens, UniProt P01116, G12A).
T6 construct: […]; biotin (biotinylated); purchased Accelegan Inc
The experiment in a line: KRas binding assay (TR-FRET displacement of Cy5 labelled tracer).
Protocol: as §1

T2 sequence (P01116 1-169 isoform P01116-2 G12R): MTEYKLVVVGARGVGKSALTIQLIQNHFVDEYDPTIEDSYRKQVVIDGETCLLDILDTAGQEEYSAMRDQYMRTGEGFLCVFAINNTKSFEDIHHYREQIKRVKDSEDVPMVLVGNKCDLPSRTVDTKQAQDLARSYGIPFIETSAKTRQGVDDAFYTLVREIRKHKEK
Chain of KRas^G13D (P01116 1-169 isoform P01116-2 G13D): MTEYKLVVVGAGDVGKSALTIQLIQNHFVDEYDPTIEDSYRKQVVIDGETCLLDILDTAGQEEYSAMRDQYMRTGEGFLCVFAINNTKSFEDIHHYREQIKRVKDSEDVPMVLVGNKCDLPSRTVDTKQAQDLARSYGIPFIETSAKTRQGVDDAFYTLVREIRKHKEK
T5 sequence (P01116 1-169 isoform P01116-2 G12V): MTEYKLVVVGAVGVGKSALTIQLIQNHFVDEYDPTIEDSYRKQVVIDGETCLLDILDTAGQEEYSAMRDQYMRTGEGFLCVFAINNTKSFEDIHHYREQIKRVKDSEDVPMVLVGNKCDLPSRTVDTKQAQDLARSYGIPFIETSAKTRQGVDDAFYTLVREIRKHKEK
T4 sequence (P01116 1-169 isoform P01116-2 G12S): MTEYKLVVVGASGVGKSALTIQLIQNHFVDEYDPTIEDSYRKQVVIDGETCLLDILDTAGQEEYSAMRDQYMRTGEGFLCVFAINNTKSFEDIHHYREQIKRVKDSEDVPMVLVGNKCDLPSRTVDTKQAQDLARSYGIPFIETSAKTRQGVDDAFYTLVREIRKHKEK
T3 sequence (P01116 1-169 isoform P01116-2 G12D): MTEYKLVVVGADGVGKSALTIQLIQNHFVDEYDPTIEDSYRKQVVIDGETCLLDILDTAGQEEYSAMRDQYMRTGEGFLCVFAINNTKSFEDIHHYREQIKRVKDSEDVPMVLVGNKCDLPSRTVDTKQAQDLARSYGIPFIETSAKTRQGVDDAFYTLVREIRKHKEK
T6 sequence (P01116 1-169 isoform P01116-2 G12A): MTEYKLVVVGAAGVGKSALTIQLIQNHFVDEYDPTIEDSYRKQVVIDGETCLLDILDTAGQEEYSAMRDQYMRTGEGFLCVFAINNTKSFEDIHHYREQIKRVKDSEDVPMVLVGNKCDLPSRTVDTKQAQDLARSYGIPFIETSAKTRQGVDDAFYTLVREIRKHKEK
Chain of KRas^G12C (P01116 1-169 isoform P01116-2 G12C): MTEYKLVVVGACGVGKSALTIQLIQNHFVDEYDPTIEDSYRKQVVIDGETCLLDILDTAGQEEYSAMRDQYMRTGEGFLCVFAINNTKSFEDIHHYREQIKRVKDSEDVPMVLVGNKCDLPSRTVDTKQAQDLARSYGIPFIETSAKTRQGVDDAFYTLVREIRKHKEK
Chain of KRas^Q61H (P01116 1-169 isoform P01116-2 Q61H): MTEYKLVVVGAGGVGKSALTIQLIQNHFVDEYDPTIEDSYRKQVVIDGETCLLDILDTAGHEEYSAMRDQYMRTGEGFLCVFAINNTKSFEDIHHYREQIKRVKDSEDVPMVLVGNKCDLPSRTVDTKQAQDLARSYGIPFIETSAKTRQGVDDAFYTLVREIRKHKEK
T1 sequence (P01116 1-169 isoform P01116-2): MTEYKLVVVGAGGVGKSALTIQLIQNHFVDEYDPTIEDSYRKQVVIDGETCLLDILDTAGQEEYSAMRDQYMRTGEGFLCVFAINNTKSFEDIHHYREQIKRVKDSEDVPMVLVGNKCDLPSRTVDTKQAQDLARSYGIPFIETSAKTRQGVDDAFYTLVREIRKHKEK

As to `CCc1cccc2cccc(N3CCc4c(nc(OCC56CCCN5CCC6)nc4N4CCCC(c5c[nH]cn5)C4)C3)c12` (stereo not drawn) [Example 116, 4-(3-(1H-imidazol-4-yl)piperidin-1-yl)-7-(8-ethylnaphthalen-1-yl)-2-((tetrahydro-1H-pyrrolizin-7a(5H)-yl)methoxy)-5,6,7,8-tetrahydropyrido[3,4-d]pyrimidine], the IC50 in experiment [1] was 1110 nM; in experiment [2], 2100 nM; in experiment [3], 462 nM; in experiment [4], 1640 nM; in experiment [5], 3300 nM; in experiment [6] it was 1490 nM. The IC50 in experiment [7] is 1790 nM; in experiment [8], 1670 nM; in experiment [9], 1160 nM.

For the compound `CCc1cccc2cccc(N3CCc4c(nc(OCC56CCCN5CCC6)nc4N4CCCC(c5cn(C)nn5)C4)C3)c12` (stereo not drawn) [Example 118, 7-(8-ethylnaphthalen-1-yl)-4-(3-(1-methyl-1H-1,2,3-triazol-4-yl)piperidin-1-yl)-2-((tetrahydro-1H-pyrrolizin-7a(5H)-yl)methoxy)-5,6,7,8-tetrahydropyrido[3,4-d]pyrimidine], the IC50 in [1] was 652 nM; in experiment [2], 1950 nM; in experiment [3], 558 nM; in [4] it was 1490 nM; in experiment [5] it was 1800 nM; in experiment [6], 917 nM. In addition, the IC50 worked out at 948 nM in experiment [7], 1570 nM in [8] and 880 nM in experiment [9].

`CCc1cccc2cccc(N3CCc4c(nc(OCC56CCCN5CCC6)nc4N4CCCCC(C)C4)C3)c12` (stereo not drawn) [Example 119]: the IC50 in experiment [1] worked out at 811 nM; in experiment [2], 967 nM; in experiment [3] it was 836 nM; in [4] it was 778 nM; in experiment [5], 1050 nM; in [6] it was 797 nM. For the same compound, the IC50 is 564 nM in experiment [7], 735 nM in experiment [8] and 644 nM in experiment [9].

As to `CCc1cccc2cccc(N3CCc4c(nc(OCC56CCCN5CCC6)nc4N4CCCC(c5nc(C)c(C)[nH]5)C4)C3)c12` (stereo not drawn) [Example 120, 4-(3-(4,5-dimethyl-1H-imidazol-2-yl)piperidin-1-yl)-7-(8-ethylnaphthalen-1-yl)-2-((tetrahydro-1H-pyrrolizin-7a(5H)-yl)methoxy)-5,6,7,8-tetrahydropyrido[3,4-d]pyrimidine], the IC50 in [1] is 573 nM; in experiment [2], 1810 nM; in experiment [3], 1320 nM; in [4], 2100 nM; in experiment [5], 6380 nM; in experiment [6], 2480 nM. Besides, the 50% inhibitory concentration (IC50) worked out at 4210 nM in [7], 2010 nM in experiment [8] and 1530 nM in experiment [9].

As to `CCc1cccc2cccc(N3CCc4c(nc(OCC56CCCN5CCC6)nc4N4CCCC(S(=O)(=O)NC)C4)C3)c12` (stereo not drawn) [Example 125, 1-(7-(8-ethylnaphthalen-1-yl)-2-((tetrahydro-1H-pyrrolizin-7a(5H)-yl)methoxy)-5,6,7,8-tetrahydropyrido[3,4-d]pyrimidin-4-yl)-N-methylpiperidine-3-sulfonamide], the IC50 in experiment [1] was found to be 1200 nM; in [2], 651 nM; in experiment [3] it was 1490 nM; in experiment [4], 1050 nM; in experiment [5], 1030 nM; in experiment [6], 665 nM. In addition, the figures for the IC50 in experiment [7], in experiment [8] and in [9] were 1410 nM, 720 nM and 1320 nM, respectively.

`CCc1cccc2cccc(N3CCc4c(nc(OCC56CCCN5CCC6)nc4NC4CC(=O)N(c5cnn(C)c5)C4)C3)c12` (stereo not drawn) [Example 126, 4-((7-(8-ethylnaphthalen-1-yl)-2-((tetrahydro-1H-pyrrolizin-7a(5H)-yl)methoxy)-5,6,7,8-tetrahydropyrido[3,4-d]pyrimidin-4-yl)amino)-1-(1-methyl-1H-pyrazol-4-yl)pyrrolidin-2-one]: the IC50 is 2740 nM in [1]; 4260 nM in experiment [2]; 3290 nM in experiment [3]; 5450 nM in experiment [4]; 720 nM in experiment [5]; 2910 nM in [6]. Further, the IC50 in experiment [7] amounted to 2750 nM; in experiment [8] it was 5680 nM; in experiment [9], 5900 nM.

Turning to `CCc1cccc2cccc(N3CCc4c(nc(OCC56CCCN5CCC6)nc4N(C)Cc4c[nH]nn4)C3)c12` [Example 127, N-((1H-1,2,3-triazol-4-yl)methyl)-7-(8-ethylnaphthalen-1-yl)-N-methyl-2-((tetrahydro-1H-pyrrolizin-7a(5H)-yl)methoxy)-5,6,7,8-tetrahydropyrido[3,4-d]pyrimidin-4-amine], the IC50 in experiment [1] came out at 1150 nM; in [2], 1540 nM; in experiment [3] it was 1360 nM; in experiment [4], 1750 nM; in [5], 2040 nM; in experiment [6], 1400 nM. In addition, the IC50 was found to be 739 nM in experiment [7], 1830 nM in [8] and 2070 nM in experiment [9].

As to `CCc1cccc2cccc(N3CCc4c(nc(OCC56CCCN5CCC6)nc4N4CC(CO)OC5(CCC5)C4)C3)c12` (stereo not drawn) [Example 129, (8-(7-(8-ethylnaphthalen-1-yl)-2-((tetrahydro-1H-pyrrolizin-7a(5H)-yl)methoxy)-5,6,7,8-tetrahydropyrido[3,4-d]pyrimidin-4-yl)-5-oxa-8-azaspiro[3.5]nonan-6-yl)methanol], the IC50 was 1300 nM in [1]; 2210 nM in experiment [2]; 760 nM in experiment [3]; 2430 nM in [4]; 16000 nM in experiment [5]; 2140 nM in experiment [6]. Further, the IC50 in [7] stood at 2410 nM; in [8], 3220 nM; in [9], 2970 nM.

Take `CCc1cccc2cccc(N3CCc4c(nc(OCC56CCCN5CCC6)nc4N4CCOC5(CCSC5)C4)C3)c12` (stereo not drawn) [Example 130, 9-(7-(8-ethylnaphthalen-1-yl)-2-((tetrahydro-1H-pyrrolizin-7a(5H)-yl)methoxy)-5,6,7,8-tetrahydropyrido[3,4-d]pyrimidin-4-yl)-6-oxa-2-thia-9-azaspiro[4.5]decane]: the IC50 was found to be 1100 nM in experiment [1]; 772 nM in experiment [2]; 1230 nM in experiment [3]; 950 nM in experiment [4]; 5070 nM in experiment [5]; 1300 nM in experiment [6]. The IC50 came out at 1260 nM in experiment [7], 1160 nM in experiment [8] and 1460 nM in [9].

With `CCc1cccc2cccc(N3CCc4c(nc(OCC56CCCN5CCC6)nc4N4CCCC(C(C)O)C4)C3)c12` (stereo not drawn) [Example 131, 1-(1-(7-(8-ethylnaphthalen-1-yl)-2-((tetrahydro-1H-pyrrolizin-7a(5H)-yl)methoxy)-5,6,7,8-tetrahydropyrido[3,4-d]pyrimidin-4-yl)piperidin-3-yl)ethan-1-ol], the IC50 in [1] stood at 1070 nM; in experiment [2], 1410 nM; in experiment [3], 774 nM; in experiment [4], 1480 nM; in [5] it was 2120 nM; in experiment [6] it was 1350 nM. The half-inhibitory concentration (IC50) in experiment [7] was found to be 1260 nM; in experiment [8], 1360 nM; in experiment [9], 1200 nM.

For `CCc1cccc2cccc(N3CCc4c(nc(OCC56CCCN5CCC6)nc4N4CCCC(n5nccn5)C4)C3)c12` (stereo not drawn) [Example 132, 4-(3-(2H-1,2,3-triazol-2-yl)piperidin-1-yl)-7-(8-ethylnaphthalen-1-yl)-2-((tetrahydro-1H-pyrrolizin-7a(5H)-yl)methoxy)-5,6,7,8-tetrahydropyrido[3,4-d]pyrimidine], the IC50 in [1] amounted to 1320 nM; in [2], 1430 nM; in experiment [3], 775 nM; in [4], 1720 nM; in experiment [5], 3900 nM; in experiment [6], 1660 nM. The figures for the IC50 in [7], in experiment [8] and in experiment [9] were 1640 nM, 1450 nM and 1180 nM, respectively.

With `CCc1cccc2cccc(N3CCc4c(nc(OCC56CCCN5CCC6)nc4N4CC(C)CC(CO)C4)C3)c12` (stereo not drawn) [Example 133, (1-(7-(8-ethylnaphthalen-1-yl)-2-((tetrahydro-1H-pyrrolizin-7a(5H)-yl)methoxy)-5,6,7,8-tetrahydropyrido[3,4-d]pyrimidin-4-yl)-5-methylpiperidin-3-yl)methanol], the IC50 is 871 nM in experiment [1]; 1340 nM in experiment [2]; 781 nM in [3]; 1440 nM in [4]; 945 nM in [5]; 1020 nM in experiment [6]. The half-maximal inhibitory concentration (IC50) in [7] came to 936 nM; in experiment [8], 1500 nM; in [9], 1020 nM.

Consider `CCc1cccc2cccc(N3CCc4c(nc(OCC56CCCN5CCC6)nc4N4CCCC(c5ncc(C)s5)C4)C3)c12` (stereo not drawn) [Example 135, 2-(1-(7-(8-ethylnaphthalen-1-yl)-2-((tetrahydro-1H-pyrrolizin-7a(5H)-yl)methoxy)-5,6,7,8-tetrahydropyrido[3,4-d]pyrimidin-4-yl)piperidin-3-yl)-5-methylthiazole], for which the IC50 in experiment [1] was found to be 1930 nM; in [2] it was 2830 nM; in experiment [3], 850 nM; in [4], 2850 nM; in experiment [5], 4100 nM; in experiment [6], 2420 nM. Besides, the half-maximal inhibitory concentration (IC50) in experiment [7] came out at 2850 nM; in experiment [8] it was 2810 nM; in [9], 2670 nM.
